Measurements reported in patent US5405861A, “Triazole compounds and antifungal compositions thereof” (Takeda Chemical Industries, Co., Ltd., priority 1989, dated 1995).
Read-outs that look alike come from different tables or passages of the source.

Tests used:
[1] = system: Candida albicans (IFO 0538); experiment: Antifungal activity against Candida albicans, paper disc growth inhibition zone (Tables 5 and 6); format: cell-based; conditions: 28° C., 2 days incubation; for zone of inhibition at 1000 µg/mL: 48 h, read-out: Inhibition zone diameter
Experimental: The antifungal activities of the compounds (I) were evaluated by the following method: a sheet of filter paper disc (manufactured by Toyo Seisakusho, 8 mm in diameter) soaked in a 1000 μg/ml solution of a compound (I) in methanol was placed on an agar plate, which was incubated at 28° C. for 2 days, and the diameter of the growth inhibition zone around the filter paper disc was measured. The following culture media were used:
A: yeast nitrogen base agar medium
B: yeast nitrogen base agar medium (pH 7.0)

[2] = system: Candida albicans; experiment: Infection-preventing effect in experimental infection in mice, Method 2 (Table 7-2); format: in vivo, Crj:CDF1 mice; conditions: po, 168 h, p.o., given just after infection, survival 7 days after infection
Experimental: Method 2 (Table 7-2): To 5-week-old Crj:CDF1 mice the minimum lethal dose of Candida albicans was inoculated intravenously. The test drug was given just after infection. The effectiveness of the drug was expressed in ED50 values calculated by the Reed and Muench method from the survival rate 7 days after infection. The ED50 values were calculated based on the […].

[3] = system: Candida albicans; experiment: Infection-preventing effect in experimental infection in mice, Method 1 (Table 7-1); format: in vivo, Crj:CDF1 mice; conditions: given 0 and 2 hours after infection, survival 7 days after infection, total dose
Experimental: Method 1 (Table 7-1): To 5-week-old Crj:CDF1 mice the minimum lethal dose of Candida albicans was inoculated intravenously. The test drug was given twice 0 and 2 hours after infection. The effectiveness of the drug was expressed in ED50 values calculated by the Reed and Muench method from the survival rate 7 days after infection. The ED50 values were calculated based on the total dose given on the two occasions.

[4] = pH 7, B medium (yeast nitrogen base agar, pH 7.0)
[5] = Candida albicans, sc, 168 h, s.c., read-out: ED50
[6] = Candida albicans, po, 168 h, p.o., read-out: ED50

| SMILES | zone of inhibition at 1000 µg/mL [1, 4] [mm] | ED50 [2] [mg/kg] | ED50 [3, 5] [mg/kg] | further results |
| --- | --- | --- | --- | --- |
| C[C@@H](SCc1csc(C(F)(F)F)n1)[C@](O)(Cn1cncn1)c1ccc(F)cc1F [Compound 122] | 35 | 0.5 | – | – |
| C[C@@H](SCc1nccn1CC(F)F)[C@](O)(Cn1cncn1)c1ccc(F)cc1F [Compound 109] | 28 | 0.5 | – | – |
| CC(C)(S)C(O)(Cn1cncn1)c1ccc(F)cc1F (centres unmarked) [Compound 119] | 30 | 0.18 | – | – |
| C[C@@H](SCc1nccn1C)[C@](O)(Cn1cncn1)c1ccc(F)cc1F [Compound 78] | 30 | 0.5 | – | – |
| C[C@@H](S)[C@@](O)(Cn1cncn1)c1ccc(F)cc1F [Compound 117, (2S,3R)-2-(2,4-difluorophenyl)-3-mercapto-1-(1 H-1,2,4-triazol-1-yl)-2-butanol] | 25 | > 4 | – | – |
| OC(Cn1cncn1)(c1ccc(F)cc1F)C1(S)CC1 (centres unmarked) [Compound 120] | 30 | 0.35 | – | – |
| C[C@H](S)[C@@](O)(Cn1cncn1)c1ccc(F)cc1F [Compound 42, (2S,3S)-2-(2,4-difluorophenyl)-3-mercapto-1-(1H-1,2,4-triazol-1-yl)-2-butanol] | 34 | > 4 | – | – |
| C[C@@H](SCc1ncc2n1CCC2)[C@](O)(Cn1cncn1)c1ccc(F)cc1F [Compound 97] | 27 | 0.5 | – | – |
| C[C@@H](SCc1csc(C2CC2)n1)[C@](O)(Cn1cncn1)c1ccc(F)cc1F [Compound 123] | 35 | 0.5 | – | – |
| C[C@@H](SCc1ncc2cccnn12)[C@](O)(Cn1cncn1)c1ccc(F)cc1F [Compound 131] | 40 | 0.7 | – | – |
| Cc1nccc(CS[C@H](C)[C@](O)(Cn2cncn2)c2ccc(F)cc2F)n1 [Compound 127] | 33 | 2 | – | – |
| C[C@@H](SCc1ncc2cnccn12)[C@](O)(Cn1cncn1)c1ccc(F)cc1F [Compound 112] | 30 | 0.5 | – | – |
| Cc1csc(CS[C@H](C)[C@](O)(Cn2cncn2)c2ccc(F)cc2F)n1 [Compound 99] | 35 | 1.4 | – | – |
| C[C@@H](SCc1cnc2cccnn12)[C@](O)(Cn1cncn1)c1ccc(F)cc1F [Compound 129] | 35 | 0.5 | – | – |
| C[C@@H](SCc1ccncn1)[C@](O)(Cn1cncn1)c1ccc(F)cc1F [Compound 126] | 38 | 2 | – | – |
| C[C@@H](SCc1csc(N)n1)[C@](O)(Cn1cncn1)c1ccc(F)cc1F [Compound 121] | 35 | 0.5 | – | – |
| C[C@@H](SCc1cncn1C)[C@](O)(Cn1cncn1)c1ccc(F)cc1F [Compound 91] | 30 | < 0.25 | – | – |
| C[C@@H](SCc1nsc(N)n1)[C@](O)(Cn1cncn1)c1ccc(F)cc1F [Compound 128] | 30 | 2 | – | – |
| C[C@@H](SCc1nccn1C1CC1)[C@](O)(Cn1cncn1)c1ccc(F)cc1F (relative stereo) [Compound 55] | 30 | – | 0.5 | – |
| C[C@@H](SCc1nccn1C)[C@](O)(Cn1cncn1)c1ccc(F)cc1F (relative stereo) [Compound 16] | 25 | – | 0.63 | – |

| SMILES | zone of inhibition at 1000 µg/mL [1, 4] [mm] | ED50 [2] [mg/kg] | ED50 [3, 5] [mg/kg] | further results |
| --- | --- | --- | --- | --- |
| C[C@@H](S)[C@](O)(Cn1cncn1)c1ccc(F)cc1F (racemic) [Compound 39, (2RS,3RS)-2-(2,4-difluorophenyl)-3-mercapto-1-(1H-1,2,4-triazol-1-yl)-2-butanol] | 18 | – | 0.19 | ED50 [3, 6]: 0.35 mg/kg |
| CC(C)n1ccnc1CS[C@H](C)[C@](O)(Cn1cncn1)c1ccc(F)cc1F (relative stereo) [Compound 47] | 25 | – | 0.7 | – |
| C[C@@H](SCc1cn2cccnc2n1)[C@](O)(Cn1cncn1)c1ccc(F)cc1F [Compound 125] | 33 | 0.5 | – | – |
| Cc1nnc(S[C@H](C)[C@](O)(Cn2cncn2)c2ccc(F)cc2F)s1 (relative stereo) [Compound 26] | 45 | – | 3.2 | – |
| CC(=O)S[C@H](C)[C@](O)(Cn1cncn1)c1ccc(F)cc1F (relative stereo) [Compound 40] | 50 | – | 0.35 | – |
| O=S(=O)(CCn1cncn1)CC(O)(Cn1cncn1)c1ccc(F)cc1F (centres unmarked) [Compound 3] | – | – | 32.4 | zone of inhibition at 1000 µg/mL ([1]; A medium (yeast nitrogen base agar)): 13 mm |
| C[C@@H](SCc1nccn1CC1CC1)[C@](O)(Cn1cncn1)c1ccc(F)cc1F (relative stereo) [Compound 51] | 28 | – | 2 | – |
| Cc1ncc(CS[C@H](C)[C@](O)(Cn2cncn2)c2ccc(F)cc2F)s1 [Compound 108] | 40 | 1.4 | – | – |
| C[C@H](S)[C@](O)(Cn1cncn1)c1ccc(F)cc1F (racemic) [Compound 60, (2RS,3SR)-2-(2,4-difluorophenyl)-3-mercapto-1-(1H-1,2,4-triazol-1-yl)-2-butanol] | 30 | – | > 4 | – |
| Cc1oc(=O)oc1CS[C@H](C)[C@](O)(Cn1cncn1)c1ccc(F)cc1F [Compound 111] | 35 | – | 0.71 | ED50 [3, 6]: 0.89 mg/kg |
| CSc1nnc(CS[C@H](C)[C@](O)(Cn2cncn2)c2ccc(F)cc2F)n1C (relative stereo) [Compound 34] | 30 | – | 3.2 | – |
| CC(C)C(=O)S[C@H](C)[C@](O)(Cn1cncn1)c1ccc(F)cc1F [Compound 62, (2R,3R)-2-(2,4-difluorophenyl)-3-isobutyrylthio-1-(1H-1,2,4-triazol-1-yl)-2-butanol] | 45 | – | 0.5 | ED50 [3, 6]: 0.35 mg/kg |
| C[C@@H](SCc1ncc2n1CCC2)[C@](O)(Cn1cncn1)c1ccc(F)cc1F (relative stereo) [Compound 35] | 33 | – | 0.71 | – |
| C[C@@H](SCc1cn2ccncc2n1)[C@](O)(Cn1cncn1)c1ccc(F)cc1F [Compound 124] | 30 | 0.7 | – | – |
| C[C@H](S)[C@](O)(Cn1cncn1)c1ccc(F)cc1F [Compound 118, (2R,3S)-2-(2,4-difluorophenyl)-3-mercapto-1-(1H-1,2,4-triazol-1-yl)-2-butanol] | 33 | 2.8 | – | – |
| CC(n1cncn1)C(O)(CS)c1ccc(F)cc1F (single isomer, unassigned) [Compound 116, 2-(2,4-difluorophenyl)-1-mercapto-3-[(1H)-1,2,4-triazol-1-yl]-2-butanol] | – | – | – | Inhibition zone diameter ([1]; B medium (yeast nitrogen base agar, pH 7.0)): 30 mm; ED50 ([3]; s.c.): > 4.0 mg/kg |
| Cc1nc(CS[C@H](C)[C@](O)(Cn2cncn2)c2ccc(F)cc2F)sc1C (relative stereo) [Compound 36] | 45 | – | 3.2 | – |
| C[C@@H](SCCc1nccn1C)[C@](O)(Cn1cncn1)c1ccc(F)cc1F (racemic) [Compound 50, (2RS,3RS)-2-(2,4-difluorophenyl)-3-[2-(1-methylimidazol-2-yl)ethyl]thio-1-(1H-1,2,4-triazol-1-yl)-2-butanol] | 22 | – | 3.2 | – |
| C[C@@H](SCc1nc2c(s1)CCC2)[C@](O)(Cn1cncn1)c1ccc(F)cc1F (relative stereo) [Compound 25] | 40 | – | 3.2 | – |
| C[C@@H](SCc1ncc2ncccn12)[C@](O)(Cn1cncn1)c1ccc(F)cc1F [Compound 130] | 35 | 0.7 | – | – |
